Measured values published in patent US20210115104A1, “AMYLIN ANALOGUES” (Zealand Pharma A/S, priority 2015, published 2021).
Like-named read-outs stand apart in the source and are kept apart here. *1 amine or outer side, *2 acyl side, *3 side chain or, on linkers, in order; H or OH if unused. Where a SMILES comes first, the peptide text is derived from it. Bridges are numbered along the chain shown (N, C = ends). [ ]: non-standard residue; d: D form. The star is where a group is joined. C20 diacid = O=C(O)CCCCCCCCCCCCCCCCCCC(=O)*; γGlu = O=C(O)[C@H](CCC(=O)[*:2])N[*:1]; Hyp = O=C(O)[C@@H]1C[C@@H](O)CN1; NMeI = CC[C@H](C)[C@H](NC)C(=O)O; Sar = CNCC(=O)O

Key:
[1] = molecular target: T1, human calcitonin receptor (hCTR2) (Homo sapiens, UniProt P30988); assay: hCTR2 cAMP assay (AlphaScreen) in COS7 cells; type: cell-based; conditions: cAMP induction, COS7 cells expressing hCTR2; Table 1; read-out: hCTR2 EC50
T1 construct: expressed in transfected cells
T1 sequence (P30988 25-474): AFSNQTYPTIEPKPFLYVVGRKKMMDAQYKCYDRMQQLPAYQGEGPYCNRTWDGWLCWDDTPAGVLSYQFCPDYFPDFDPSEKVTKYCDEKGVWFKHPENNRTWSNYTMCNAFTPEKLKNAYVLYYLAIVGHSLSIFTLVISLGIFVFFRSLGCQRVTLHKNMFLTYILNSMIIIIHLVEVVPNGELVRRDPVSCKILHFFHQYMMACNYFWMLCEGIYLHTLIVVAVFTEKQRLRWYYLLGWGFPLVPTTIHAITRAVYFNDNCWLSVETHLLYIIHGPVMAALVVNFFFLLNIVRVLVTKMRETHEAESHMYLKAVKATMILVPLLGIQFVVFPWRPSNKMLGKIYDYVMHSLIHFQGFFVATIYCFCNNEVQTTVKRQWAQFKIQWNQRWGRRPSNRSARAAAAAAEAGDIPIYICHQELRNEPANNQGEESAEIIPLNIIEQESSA
Summary of the method: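 Stable hCTR2 clone in RAMP-naïve COS7 cells stimulated 15 min at 37 °C with increasing peptide concentrations in Tyrode buffer pH 7.4 containing IBMX and 0.1% casein. cAMP in lysates measured by AlphaScreen; EC50 from 4-parameter logistic fit.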

[2] = Assessment of solubility (turbidity absorbance at 325 nm); type: physicochemical; conditions: named as exception to solubility ≥1 mg/ml
Experimental: A stock solution of the test peptide (2 mg/ml; determined from the weighed amount of peptide) in demineralized water adjusted to pH 2.5 with HCl was prepared, and aliquots were diluted 1:1 in 100 mM acetate buffer (pH 4.0 and pH 5.0), 100 mM histidine buffer (pH 6.0 and pH 7.0) and 100 mM phosphate buffer (pH 6.0, pH 7.0 and pH7.5), respectively, and loaded in a standard flat-bottom, non-sterile 96-well UV Microplate. The absorbance of samples (single samples, n=1) at 280 and 325 nm was measured in an absorbance-based plate reader, which was preheated to ambient temperature (typically 25° C.). The turbidity absorbance criterion for a peptide solubility of ≥1 mg/ml was an absorbance at 325 nm of s 0.02 absorbance units (which is 5 to 6 times the standard deviation of 8 buffer samples in a plate).

[3] = Assessment of physical stability (Thioflavin T fibrillation); type: physicochemical; set-up: key: FND = fibrillation not detected; FD = fibrillation detected; conditions: 1 mg/ml, 40° C., ThT
Summary of the method: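 1 mg/ml peptide with 40 μM ThT in 50 mM phosphate pH 7.0, 50 mM histidine pH 7.0 or 50 mM acetate pH 4.0, in triplicate. Fluorescence read every 10 min after 300 s agitation over 96 h at 40 °C. Lag-time (h) is the intersection of linear fits to stable and growth phases.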

[4] = Assessment of chemical stability (RP-HPLC normalized purity); type: physicochemical; conditions: 7 days, 40° C., Table 1
Summary of the method: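 Peptides at 0.2 mg/ml in water adjusted to pH 4, 6, 7.5 or 9, incubated at 40° C for 7 days. Main-peak area-% by RP-HPLC (C8 ammonium formate or C18 TFA gradient, UV 220 nm), normalized to T=0 as 100.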

[5] = molecular target: T2, human amylin receptor 3 (hAMYR3), hCTR2 co-expressed with hRAMP3 (Homo sapiens, UniProt O60896+P30988); assay: hAMYR3 cAMP assay (AlphaScreen) in COS7 cells; type: cell-based; conditions: cAMP induction, COS7 cells expressing hAMYR3; Table 1; read-out: hAMYR3 EC50
T2 construct: expressed in transfected cells
T2 sequence (P30988 25-474): T1 sequence (P30988 25-474)
T2 sequence (O60896 24-148 partner): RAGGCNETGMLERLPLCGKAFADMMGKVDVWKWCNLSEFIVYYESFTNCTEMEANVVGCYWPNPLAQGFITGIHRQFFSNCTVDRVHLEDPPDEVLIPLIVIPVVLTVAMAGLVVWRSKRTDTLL
Summary of the method: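 Stable COS7 clone co-expressing hCTR2 and hRAMP3 was exposed to increasing peptide concentrations in Tyrode buffer (pH 7.4) with 100 µM IBMX and 0.1% casein for 15 min at 37 °C. Lysate cAMP was measured by AlphaScreen; EC50 came from 4-parameter logistic fitting.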

[6] = pH 6.0, read-out: solubility at pH 6.0
[7] = phosphate buffer, pH 7.5, read-out: solubility at pH 7.5

| EC50 [1] | solubility [2, 6] | Fibrillation pH 4.0 (Ac) ([3]; 50 mM acetate buffer pH 4.0, 96 hours) | Fibrillation pH 7.0 (His) ([3]; 50 mM histidine buffer pH 7.0, 96 hours) | Fibrillation pH 7.0 (Phos.) ([3]; 50 mM phosphate buffer pH 7.0, 96 hours) | Normalized purity after 7 days, 40° C., pH 4 ([4]; pH 4, 0.2 mg/ml) | Normalized purity after 7 days, 40° C., pH 6 ([4]; pH 6, 0.2 mg/ml) | Normalized purity after 7 days, 40° C., pH 7.5 ([4]; pH 7.5, 0.2 mg/ml) | Normalized purity after 7 days, 40° C., pH 9 ([4]; pH 9, 0.2 mg/ml) | EC50 [5] | solubility ([2]; pH 7.0, read-out: solubility at pH 7.0) | solubility [2, 7] | SMILES |
| --- | --- | --- | --- | --- | --- | --- | --- | --- | --- | --- | --- | --- |
| 160 pM | < 1000 µg/mL | FND | FD | FD | A (A = >90%) | A (A = >90%) | B (B = 70-90%) | B (B = 70-90%) |  |  |  | CC[C@H](C)[C@@H](C(=O)N[C@@H](CC(C)C)C(=O)N[C@@H](CO)C(=O)N[C@@H](CO)C(=O)N[C@H](C(=O)N[C@@H](CCC(=O)O)C(=O)N[C@H](C(=O)NCC(=O)N[C@@H](CO)C(=O)N[C@@H](Cc1ccccc1)C(=O)N[C@H](C(=O)N1C[C@H](O)C[C@H]1C(N)=O)[C@@H](C)O)C(C)C)[C@@H](C)O)N(C)C(=O)[C@H](C)NC(=O)CN(C)C(=O)[C@H](Cc1ccccc1)NC(=O)[C@H](CO)NC(=O)[C@H](CO)NC(=O)[C@H](CCCNC(=N)N)NC(=O)[C@@H](NC(=O)[C@H](CC(C)C)NC(=O)[C@H](Cc1ccccc1)NC(=O)[C@H](Cc1c[nH]cn1)NC(=O)[C@H](C)NC(=O)[C@H](CC(C)C)NC(=O)[C@H](CCCNC(=N)N)NC(=O)[C@H](CCC(=O)O)NC(=O)[C@@H](NC(=O)[C@H](C)NC(=O)[C@@H]1CSSC[C@H](NC(=O)[C@H](CCCNC(=N)N)NC(=O)CC[C@H](NC(=O)CCCCCCCCCCCCCCCCCCC(=O)O)C(=O)O)C(=O)NCC(=O)N[C@@H]([C@@H](C)O)C(=O)N[C@@H](C)C(=O)N[C@@H]([C@@H](C)O)C(=O)N1)[C@@H](C)O)[C@@H](C)O [Compound 10, [19CD]-isoGlu-R-C( )-GTAT-C( )-ATERLAHFLTRSSF-Gly(Me)-A-Ile(Me)-LSSTEVGSFT-Hyp-NH2] ({C20 diacid-γGlu}-RCGTATCATERLAHFLTRSSF[Sar]A[NMeI]LSSTEVGSFT[Hyp]-NH2; disulfide 2-7) |
| 90 pM |  |  |  |  |  |  |  |  | 290 pM | < 1000 µg/mL | < 1000 µg/mL | CC[C@H](C)[C@@H](C(=O)N[C@@H](CC(C)C)C(=O)N[C@@H](CO)C(=O)N[C@@H](CO)C(=O)N[C@H](C(=O)N[C@@H](CCC(=O)O)C(=O)N[C@H](C(=O)NCC(=O)N[C@@H](CO)C(=O)N[C@@H](CO)C(=O)N[C@H](C(=O)N1C[C@H](O)C[C@H]1C(N)=O)[C@@H](C)O)C(C)C)[C@@H](C)O)N(C)C(=O)[C@H](C)NC(=O)CN(C)C(=O)[C@H](Cc1ccccc1)NC(=O)[C@H](CO)NC(=O)[C@H](CO)NC(=O)[C@H](CCCNC(=N)N)NC(=O)[C@@H](NC(=O)[C@H](CC(C)C)NC(=O)[C@H](Cc1ccccc1)NC(=O)[C@H](Cc1c[nH]cn1)NC(=O)[C@H](C)NC(=O)[C@H](CC(C)C)NC(=O)[C@H](CCCNC(=N)N)NC(=O)[C@H](CCC(=O)O)NC(=O)[C@@H](NC(=O)[C@H](C)NC(=O)[C@@H]1CSSC[C@H](NC(=O)[C@H](CCCNC(=N)N)NC(=O)CC[C@H](NC(=O)CCCCCCCCCCCCCCCCCCC(=O)O)C(=O)O)C(=O)NCC(=O)N[C@@H]([C@@H](C)O)C(=O)N[C@@H](C)C(=O)N[C@@H]([C@@H](C)O)C(=O)N1)[C@@H](C)O)C(C)C [Compound 31, [19CD]-isoGlu-R-C( )-GTAT-C( )-ATERLAHFLVRSSF-Gly(Me)-A-Ile(Me)-LSSTEVGSST-Hyp-NH2] ({C20 diacid-γGlu}-RCGTATCATERLAHFLVRSSF[Sar]A[NMeI]LSSTEVGSST[Hyp]-NH2; disulfide 2-7) |
| 60 pM | < 1000 µg/mL |  |  |  |  |  |  |  | 120 pM |  | < 1000 µg/mL | CC[C@H](C)[C@@H](C(=O)N[C@@H](CC(C)C)C(=O)N[C@@H](CO)C(=O)N[C@@H](CO)C(=O)N[C@H](C(=O)N[C@@H](CCC(=O)O)C(=O)N[C@H](C(=O)NCC(=O)N[C@@H](CO)C(=O)N[C@@H](CO)C(=O)N[C@H](C(=O)N1CCC[C@H]1C(N)=O)[C@@H](C)O)C(C)C)[C@@H](C)O)N(C)C(=O)[C@H](C)NC(=O)CN(C)C(=O)[C@H](Cc1ccccc1)NC(=O)[C@H](CO)NC(=O)[C@H](CO)NC(=O)[C@H](CCCNC(=N)N)NC(=O)[C@@H](NC(=O)[C@H](CC(C)C)NC(=O)[C@H](Cc1ccccc1)NC(=O)[C@H](Cc1c[nH]cn1)NC(=O)[C@H](C)NC(=O)[C@H](CC(C)C)NC(=O)[C@H](CCCNC(=N)N)NC(=O)[C@H](CCC(=O)O)NC(=O)[C@@H](NC(=O)[C@H](C)NC(=O)[C@@H]1CSSC[C@H](NC(=O)[C@H](CCCNC(=N)N)NC(=O)CC[C@H](NC(=O)CCCCCCCCCCCCCCCCCCC(=O)O)C(=O)O)C(=O)NCC(=O)N[C@@H]([C@@H](C)O)C(=O)N[C@@H](C)C(=O)N[C@@H]([C@@H](C)O)C(=O)N1)[C@@H](C)O)C(C)C [Compound 38, [19CD]-isoGlu-R-C( )-GTAT-C( )-ATERLAHFLVRSSF-Gly(Me)-A-Ile(Me)-LSSTEVGSSTP-NH2] ({C20 diacid-γGlu}-RCGTATCATERLAHFLVRSSF[Sar]A[NMeI]LSSTEVGSSTP-NH2; disulfide 2-7) |
